Source: ChEMBL document CHEMBL1909046, “DrugMatrix in vitro pharmacology data”
pIC50: −log10 of the molar value.

Legend:
[1] = biological target: T1, D(4) dopamine receptor (Homo sapiens, UniProt P21917); test: DRUGMATRIX: Dopamine D4.2 radioligand binding (ligand: [3H] Spiperone); assay type: cell membranes, CHO-K1, Membrane; details: cho-k1; Not Active = under 50% inhibition at 10 µM
T1 sequence (P21917 whole entry): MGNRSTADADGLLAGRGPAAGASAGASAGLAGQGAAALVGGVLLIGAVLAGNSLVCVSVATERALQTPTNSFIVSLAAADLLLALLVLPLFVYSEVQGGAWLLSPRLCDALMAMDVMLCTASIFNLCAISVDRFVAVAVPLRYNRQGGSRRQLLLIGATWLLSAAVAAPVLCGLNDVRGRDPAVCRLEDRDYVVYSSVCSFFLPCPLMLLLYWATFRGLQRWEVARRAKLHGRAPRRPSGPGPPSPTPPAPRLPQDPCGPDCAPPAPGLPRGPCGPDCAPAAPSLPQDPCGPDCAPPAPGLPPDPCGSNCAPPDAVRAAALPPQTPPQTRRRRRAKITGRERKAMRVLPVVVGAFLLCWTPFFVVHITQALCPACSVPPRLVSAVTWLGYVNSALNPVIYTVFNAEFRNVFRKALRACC

[2] = DRUGMATRIX: GABAA, Muscimol, Central radioligand binding (ligand: [3H] Muscimol); assay type: cell membranes, Rattus norvegicus, Wistar, Brain, Membrane; details: Not Active = under 50% inhibition at 10 µM
[3] = biological target: T2, Cysteinyl leukotriene receptor 1 (Homo sapiens, UniProt Q9Y271); assay type: cell membranes, CHO-K1, Membrane; details: cho-k1; further: in other assays of this panel Not Active means under 50% inhibition at 10 µM
T2 sequence (Q9Y271 whole entry): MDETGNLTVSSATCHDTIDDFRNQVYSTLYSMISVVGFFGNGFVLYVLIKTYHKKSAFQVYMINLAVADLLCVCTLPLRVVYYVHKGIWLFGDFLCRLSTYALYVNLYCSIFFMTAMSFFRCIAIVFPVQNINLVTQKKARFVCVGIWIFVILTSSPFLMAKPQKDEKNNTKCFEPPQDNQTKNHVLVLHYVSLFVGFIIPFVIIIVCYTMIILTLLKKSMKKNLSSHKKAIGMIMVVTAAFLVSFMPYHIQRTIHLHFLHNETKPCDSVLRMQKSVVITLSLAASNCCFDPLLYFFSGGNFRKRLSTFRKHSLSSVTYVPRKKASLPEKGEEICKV

[4] = biological target: Melanocortin receptor 4 (Homo sapiens, UniProt P32245); assay type: cell membranes, HEK293, Membrane; details: hek293; further: in other assays of this panel Not Active means under 50% inhibition at 10 µM
[5] = biological target: T3, Neuropeptide Y receptor type 2 (Homo sapiens, UniProt P49146); assay type: cell membranes, Membrane; details: kan-ts; further: in other assays of this panel Not Active means under 50% inhibition at 10 µM
T3 sequence (P49146 whole entry): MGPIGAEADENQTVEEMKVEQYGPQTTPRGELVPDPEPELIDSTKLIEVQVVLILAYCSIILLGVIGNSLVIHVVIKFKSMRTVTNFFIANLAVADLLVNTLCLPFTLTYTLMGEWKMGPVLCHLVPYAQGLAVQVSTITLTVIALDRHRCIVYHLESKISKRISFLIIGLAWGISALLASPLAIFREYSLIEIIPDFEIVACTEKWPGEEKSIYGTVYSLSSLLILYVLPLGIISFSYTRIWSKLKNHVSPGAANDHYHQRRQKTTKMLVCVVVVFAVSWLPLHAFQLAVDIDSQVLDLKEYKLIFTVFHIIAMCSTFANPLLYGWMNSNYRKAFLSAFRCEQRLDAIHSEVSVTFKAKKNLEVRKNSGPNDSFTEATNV

[6] = biological target: Mu-type opioid receptor (Homo sapiens, UniProt P35372); test: DRUGMATRIX: Opiate mu (OP3, MOP) radioligand binding (ligand: [3H] Diprenorphine); assay type: cell membranes, CHO-K1, Membrane; details: cho-k1; Not Active = under 50% inhibition at 10 µM
[7] = DRUGMATRIX: Potassium Channel [KATP] radioligand binding (ligand: [3H] Glyburide); assay type: cell membranes, Membrane; details: hit-t15; Not Active = under 50% inhibition at 10 µM
[8] = biological target: Mitogen-activated protein kinase 14 (Homo sapiens, UniProt Q16539); design: species or system Escherichia coli; details: for pIC50: read-out: IC50;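 on all read-outs here: inhibition of p38alpha enzyme activity in a biochemical kinase assay, with myelin basic protein serving as substrate; in other assays of this panel Not Active means under 50% inhibition at 10 µM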
Chain of Mitogen-activated protein kinase 14 (Q16539 whole entry): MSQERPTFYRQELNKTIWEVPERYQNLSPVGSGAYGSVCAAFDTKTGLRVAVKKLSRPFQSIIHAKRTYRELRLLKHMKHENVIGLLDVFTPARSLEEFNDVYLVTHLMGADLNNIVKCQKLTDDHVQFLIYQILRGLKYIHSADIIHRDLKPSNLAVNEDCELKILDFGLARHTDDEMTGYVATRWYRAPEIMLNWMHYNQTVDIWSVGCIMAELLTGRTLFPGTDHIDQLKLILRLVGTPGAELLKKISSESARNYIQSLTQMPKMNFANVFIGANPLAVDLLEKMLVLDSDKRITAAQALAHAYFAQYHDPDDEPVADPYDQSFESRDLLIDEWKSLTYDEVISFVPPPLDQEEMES

Chain of Melanocortin receptor 4 (P32245 whole entry): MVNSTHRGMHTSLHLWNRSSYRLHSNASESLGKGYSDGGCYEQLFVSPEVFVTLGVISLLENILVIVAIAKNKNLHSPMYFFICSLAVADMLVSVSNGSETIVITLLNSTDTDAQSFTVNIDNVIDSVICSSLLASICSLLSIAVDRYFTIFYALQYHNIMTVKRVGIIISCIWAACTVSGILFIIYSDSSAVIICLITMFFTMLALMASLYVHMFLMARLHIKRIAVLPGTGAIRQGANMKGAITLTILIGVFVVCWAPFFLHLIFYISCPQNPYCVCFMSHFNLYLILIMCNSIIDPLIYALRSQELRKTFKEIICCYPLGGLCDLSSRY
Chain of Mu-type opioid receptor (P35372 whole entry): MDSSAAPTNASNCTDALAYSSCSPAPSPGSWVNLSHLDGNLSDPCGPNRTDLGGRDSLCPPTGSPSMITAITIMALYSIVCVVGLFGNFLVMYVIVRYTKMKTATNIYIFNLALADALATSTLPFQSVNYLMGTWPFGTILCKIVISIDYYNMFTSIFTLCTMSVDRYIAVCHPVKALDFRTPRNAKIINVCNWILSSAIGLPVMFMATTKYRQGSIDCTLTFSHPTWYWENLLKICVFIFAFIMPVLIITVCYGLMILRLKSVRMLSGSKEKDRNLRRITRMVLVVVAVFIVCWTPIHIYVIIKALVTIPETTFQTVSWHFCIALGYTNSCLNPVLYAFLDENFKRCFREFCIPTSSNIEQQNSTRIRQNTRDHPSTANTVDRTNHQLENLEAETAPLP

Molecule | IC50 [1] | IC50 [2] | Ki [2] | IC50 [3] | IC50 [4] | IC50 [5] | IC50 [6] | IC50 [7] | Ki [7] | IC50 [8] | pIC50 [8] | Ki [1] | Ki [3] | Ki [4] | Ki [5] | Ki [8]
COCCc1ccc(OCC(O)CNC(C)C)cc1 (configuration not stated) [METOPROLOL] | Not Active | Not Active | Not Active | Not Active | Not Active | Not Active | Not Active | Not Active | Not Active | Not Active | – | – | – | – | – | –
COc1cc2nc(N3CCN(C(=O)C4COc5ccccc5O4)CC3)nc(N)c2cc1OC (configuration not stated) [DOXAZOSIN] | Not Active | Not Active | Not Active | Not Active | Not Active | Not Active | Not Active | Not Active | Not Active | Not Active | – | – | – | – | – | –
NCCCCCC(=O)O [AMINOCAPROIC ACID] | Not Active | Not Active | Not Active | Not Active | Not Active | Not Active | Not Active | Not Active | Not Active | Not Active | – | – | – | – | – | –
CC(C)(C)NCC(O)c1cc(Cl)c(N)c(Cl)c1 (configuration not stated) [CLENBUTEROL] | Not Active | Not Active | Not Active | Not Active | Not Active | Not Active | – | Not Active | Not Active | Not Active | – | – | – | – | – | –
CCCN1C[C@H](CSC)C[C@@H]2c3cccc4[nH]cc(c34)C[C@H]21 [PERGOLIDE] | Not Active | Not Active | Not Active | Not Active | Not Active | Not Active | Not Active | Not Active | Not Active | Not Active | – | – | – | – | – | –
CN(C)C(=O)Oc1cc(OC(=O)N(C)C)cc(C(O)CNC(C)(C)C)c1 (configuration not stated) [BAMBUTEROL] | Not Active | Not Active | Not Active | Not Active | Not Active | Not Active | Not Active | Not Active | Not Active | Not Active | – | – | – | – | – | –
c1ccc(Nc2ccc(Nc3ccccc3)cc2)cc1 | Not Active | Not Active | Not Active | Not Active | Not Active | Not Active | Not Active | Not Active | Not Active | Not Active | – | – | – | – | – | –
Cc1cc(C(C#N)c2ccc(Cl)cc2)c(Cl)cc1NC(=O)c1cc(I)cc(I)c1O (configuration not stated) [CLOSANTEL] | Not Active | Not Active | Not Active | Not Active | Not Active | Not Active | Not Active | Not Active | Not Active | – | 6.18 | – | – | – | – | –
Cc1ccc2cc3c(ccc4ccccc43)c3c2c1CC3 [3-METHYLCHOLANTHRENE] | Not Active | Not Active | Not Active | Not Active | Not Active | Not Active | – | Not Active | Not Active | Not Active | – | – | – | – | – | –
Nc1nc2c(ncn2CCC(CO)CO)c(=O)[nH]1 [PENCICLOVIR] | Not Active | Not Active | Not Active | Not Active | Not Active | Not Active | Not Active | Not Active | Not Active | Not Active | – | – | – | – | – | –
CC1Cc2ccccc2N1NC(=O)c1ccc(Cl)c(S(N)(=O)=O)c1 (configuration not stated) [INDAPAMIDE] | Not Active | Not Active | Not Active | Not Active | Not Active | Not Active | Not Active | Not Active | Not Active | Not Active | – | – | – | – | – | –
Cc1ccc(-c2cc(C(F)(F)F)nn2-c2ccc(S(N)(=O)=O)cc2)cc1 [CELECOXIB] | Not Active | Not Active | Not Active | Not Active | Not Active | Not Active | Not Active | Not Active | Not Active | Not Active | – | – | – | – | – | –
CCCCc1nc(Cl)c(CO)n1Cc1ccc(-c2ccccc2-c2nnn[nH]2)cc1 [LOSARTAN] | Not Active | Not Active | Not Active | Not Active | Not Active | Not Active | Not Active | Not Active | Not Active | Not Active | – | – | – | – | – | –
CC(NC(C)(C)C)C(=O)c1cccc(Cl)c1 (configuration not stated) [BUPROPION] | Not Active | Not Active | Not Active | Not Active | Not Active | Not Active | Not Active | Not Active | Not Active | Not Active | – | – | – | – | – | –
CADMIUM ACETATE | Not Active | Not Active | Not Active | Not Active | Not Active | Not Active | – | Not Active | Not Active | Not Active | – | Not Active | Not Active | Not Active | Not Active | Not Active
COc1ccc(C[C@H]2NC[C@H](O)[C@H]2OC(C)=O)cc1 [ANISOMYCIN] | Not Active | Not Active | Not Active | Not Active | Not Active | Not Active | – | Not Active | Not Active | Not Active | – | Not Active | Not Active | Not Active | Not Active | Not Active
Cc1ccc(/N=C/N(C)/C=N/c2ccc(C)cc2C)c(C)c1 [AMITRAZ] | Not Active | Not Active | Not Active | Not Active | Not Active | Not Active | – | Not Active | Not Active | Not Active | – | – | – | – | – | –
CN(C)CCCN1c2ccccc2Sc2ccc(Cl)cc21 [CHLORPROMAZINE] | – | Not Active | Not Active | Not Active | – | Not Active | – | Not Active | Not Active | Not Active | – | – | – | – | – | –
LEAD (II) ACETATE | Not Active | Not Active | Not Active | Not Active | Not Active | Not Active | – | Not Active | Not Active | Not Active | – | Not Active | Not Active | Not Active | Not Active | Not Active
CC1=C2C(=CO[C@H](C)[C@H]2C)C(O)=C(C(=O)O)C1=O [CITRININ] | Not Active | Not Active | Not Active | Not Active | Not Active | Not Active | – | Not Active | Not Active | Not Active | – | – | – | – | – | –
O=C(O)CCCc1ccc(N(CCCl)CCCl)cc1 [CHLORAMBUCIL] | Not Active | Not Active | Not Active | Not Active | Not Active | Not Active | – | Not Active | Not Active | Not Active | – | – | – | – | – | –
LIPOPOLYSACCHARIDE E. COLI O55:B5 | Not Active | Not Active | Not Active | Not Active | Not Active | Not Active | – | Not Active | Not Active | – | 7.22 | Not Active | Not Active | Not Active | Not Active | –
